From PubChem BioAssay AID256 (DTP/NCI, 2004)
Inconclusive results and toxic doses are left out. The calls were made as follows: active = survival T/C of 150% or more; inactive = T/C below 125% in these data.

System: CD2F1 mice, L1210 leukemia ip, survival T/C
Experiment: NCI In Vivo Anticancer Drug Screen. Data for tumor model L1210 Leukemia (intraperitoneal) in CD2F1 (CDF1) mice
Conditions: higher = longer survival
Method in brief: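 Compound-dosed mice with transplantable tumor versus matched vehicle controls; endpoint ratio T/C reported.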

[1] = endpoint: mean survival time, dose: 100.0 mg/kg/injection, schedule: Q01DX009 (ip), vehicle: saline with Tween-80
[2] = endpoint: mean survival time, dose: 200.0 mg/kg/injection, schedule: Q01DX009 (ip), vehicle: saline with Tween-80
[3] = endpoint: mean survival time, dose: 50.0 mg/kg/injection, schedule: Q01DX009 (ip), vehicle: saline with Tween-80

Measured: T/C

CC12CCC3C(CCC4CCCCC43C)C1CC/C2=N\O (centres undefined)
inactive: endpoint: mean survival time, dose: 100.0 mg/kg/injection, schedule: Q04DX003 (sc), vehicle: steriod suspending solution 96 % of control | endpoint: mean survival time, dose: 200.0 mg/kg/injection, schedule: Q04DX003 (sc), vehicle: steriod suspending solution 104 % of control | endpoint: mean survival time, dose: 400.0 mg/kg/injection, schedule: Q04DX003 (sc), vehicle: steriod suspending solution 89 % of control

CCCCCNCCOC(=O)c1ccc(N)cc1
inactive: endpoint: mean survival time, dose: 5.0 mg/kg/injection, schedule: Q01DX001 (ip), vehicle: saline 100 % of control | endpoint: mean survival time, dose: 10.0 mg/kg/injection, schedule: Q01DX001 (ip), vehicle: saline 100 % of control | endpoint: mean survival time, dose: 20.0 mg/kg/injection, schedule: Q01DX001 (ip), vehicle: saline 94 % of control | endpoint: mean survival time, dose: 40.0 mg/kg/injection, schedule: Q01DX001 (ip), vehicle: saline 104 % of control

COC1=CC(=O)C=C(OC(C)=O)C12Oc1c(Cl)c(C)c(Cl)c(O)c1C2=O (centres undefined)
inactive: endpoint: mean survival time, dose: 6.25 mg/kg/injection, schedule: Q04DX002 (ip), vehicle: saline with Tween-80 105 % of control | endpoint: mean survival time, dose: 12.5 mg/kg/injection, schedule: Q04DX002 (ip), vehicle: saline with Tween-80 98 % of control | endpoint: mean survival time, dose: 25.0 mg/kg/injection, schedule: Q04DX002 (ip), vehicle: saline with Tween-80 102 % of control

COC(=O)C1C2CCCN2OC1(C)CO (centres undefined)
inactive: endpoint: median survival time, dose: 7.5 mg/kg/injection, schedule: Q01DX005 (ip), vehicle: saline 98 % of control | endpoint: median survival time, dose: 15.0 mg/kg/injection, schedule: Q01DX005 (ip), vehicle: saline 101 % of control | endpoint: median survival time, dose: 30.0 mg/kg/injection, schedule: Q01DX005 (ip), vehicle: saline 96 % of control | endpoint: median survival time, dose: 60.0 mg/kg/injection, schedule: Q01DX005 (ip), vehicle: saline 106 % of control | endpoint: median survival time, dose: 120.0 mg/kg/injection, schedule: Q01DX005 (ip), vehicle: saline 104 % of control

COC(=O)c1cc(C2OC3OC(C)(C)OC3C2OCc2ccccc2)nn1-c1ccc([N+](=O)[O-])cc1 (centres undefined)
inactive: endpoint: median survival time, dose: 11.5 mg/kg/injection, schedule: Q01DX005 (ip), vehicle: other 101 % of control | endpoint: median survival time, dose: 23.0 mg/kg/injection, schedule: Q01DX005 (ip), vehicle: other 100 % of control | endpoint: median survival time, dose: 46.0 mg/kg/injection, schedule: Q01DX005 (ip), vehicle: other 100 % of control | endpoint: median survival time, dose: 92.0 mg/kg/injection, schedule: Q01DX005 (ip), vehicle: other 100 % of control

O=C(CNC(=O)Nc1cccc(C(F)(F)F)c1)NNC(=O)Nc1ccc(Cl)c([N+](=O)[O-])c1
inactive: [1] 89 % of control | [2] 86 % of control

O=C(O)Cn1nnc2ccccc21
inactive: endpoint: mean survival time, dose: 25.0 mg/kg/injection, schedule: Q01DX009 (ip), vehicle: saline with Tween-80 100 % of control | endpoint: mean survival time, dose: 25.0 mg/kg/injection, schedule: Q01DX009 (ip), vehicle: saline 102 % of control | [3] 97 % of control | endpoint: mean survival time, dose: 50.0 mg/kg/injection, schedule: Q01DX009 (ip), vehicle: saline 102 % of control | [1] 97 % of control | endpoint: mean survival time, dose: 100.0 mg/kg/injection, schedule: Q01DX009 (ip), vehicle: saline 98 % of control | [2] 100 % of control | endpoint: mean survival time, dose: 200.0 mg/kg/injection, schedule: Q01DX009 (ip), vehicle: saline 100 % of control

C1=C(CN2CCCCC2)COc2ccccc21
inactive: endpoint: mean survival time, dose: 37.5 mg/kg/injection, schedule: Q04DX003 (ip), vehicle: saline 107 % of control | endpoint: mean survival time, dose: 75.0 mg/kg/injection, schedule: Q01DX001 (ip), vehicle: saline 98 % of control | endpoint: mean survival time, dose: 75.0 mg/kg/injection, schedule: Q04DX003 (ip), vehicle: saline 104 % of control | endpoint: mean survival time, dose: 150.0 mg/kg/injection, schedule: Q01DX001 (ip), vehicle: saline 97 % of control | endpoint: mean survival time, dose: 150.0 mg/kg/injection, schedule: Q04DX003 (ip), vehicle: saline 104 % of control

COc1ccc(NC(=O)Nc2cc(C)on2)c(Cl)c1
inactive: endpoint: mean survival time, dose: 50.0 mg/kg/injection, schedule: Q01DX009 (ip), vehicle: Klucel (hydroxypropylcellulose) (HPC) 91 % of control | endpoint: mean survival time, dose: 100.0 mg/kg/injection, schedule: Q01DX009 (ip), vehicle: Klucel (hydroxypropylcellulose) (HPC) 95 % of control | endpoint: mean survival time, dose: 100.0 mg/kg/injection, schedule: Q04DX003 (ip), vehicle: Klucel (hydroxypropylcellulose) (HPC) 110 % of control | endpoint: mean survival time, dose: 200.0 mg/kg/injection, schedule: Q01DX009 (ip), vehicle: Klucel (hydroxypropylcellulose) (HPC) 98 % of control | endpoint: mean survival time, dose: 200.0 mg/kg/injection, schedule: Q04DX003 (ip), vehicle: Klucel (hydroxypropylcellulose) (HPC) 106 % of control | endpoint: mean survival time, dose: 400.0 mg/kg/injection, schedule: Q04DX003 (ip), vehicle: Klucel (hydroxypropylcellulose) (HPC) 106 % of control

Cc1ccc(NC(=O)/C=C/C(=O)O)cc1C
inactive: [3] 95 % of control | [1] 101 % of control | [2] 105 % of control

CN(C)c1cc2c3c(c1)CCCN3CCC2
inactive: endpoint: mean survival time, dose: 3.13 mg/kg/injection, schedule: Q01DX009 (ip), vehicle: saline 98 % of control | endpoint: mean survival time, dose: 6.25 mg/kg/injection, schedule: Q01DX009 (ip), vehicle: saline 109 % of control | endpoint: mean survival time, dose: 12.5 mg/kg/injection, schedule: Q01DX009 (ip), vehicle: saline 96 % of control

CC(=O)Nc1nc(/C=C\c2ccc([N+](=O)[O-])cc2)c(CCCCc2ccccc2)c(=O)[nH]1
inactive: endpoint: mean survival time, dose: 3.13 mg/kg/injection, schedule: Q01DX001 (ip), vehicle: saline with Tween-80 98 % of control | endpoint: mean survival time, dose: 6.25 mg/kg/injection, schedule: Q01DX001 (ip), vehicle: saline with Tween-80 96 % of control | endpoint: mean survival time, dose: 12.5 mg/kg/injection, schedule: Q01DX001 (ip), vehicle: saline with Tween-80 98 % of control

[C-]#[O+].[C-]#[O+].[C-]#[O+].[C-]#[O+].[C-]#[O+].[I][Re]
inactive: endpoint: mean survival time, dose: 50.0 mg/kg/injection, schedule: Q04DX002 (ip), vehicle: other 123 % of control

FC(F)(F)/C([S-])=C(/[S-])C(F)(F)F.[Ni].[c-]1[c-][c-][cH-][c-]1
inactive: endpoint: mean survival time, dose: 9.5 mg/kg/injection, schedule: Q01DX001 (ip), vehicle: other 92 % of control | endpoint: mean survival time, dose: 19.0 mg/kg/injection, schedule: Q01DX001 (ip), vehicle: other 93 % of control

O=c1nc(OCCO)c([N+](=O)[O-])c(C(Cl)(Cl)Cl)[nH]1
inactive: endpoint: mean survival time, dose: 100.0 mg/kg/injection, schedule: Q04DX003 (ip), vehicle: saline with Tween-80 96 % of control | endpoint: mean survival time, dose: 200.0 mg/kg/injection, schedule: Q04DX003 (ip), vehicle: saline with Tween-80 97 % of control | endpoint: mean survival time, dose: 400.0 mg/kg/injection, schedule: Q04DX003 (ip), vehicle: saline with Tween-80 89 % of control

O=C(O)C1CCC[N-]C1.O=C(O)C1CCC[N-]C1.[Cl][Pt+2][Cl] (centres undefined)
inactive: endpoint: mean survival time, dose: 5.0 mg/kg/injection, schedule: Q04DX003 (ip), vehicle: saline with Tween-80 95 % of control | endpoint: mean survival time, dose: 10.0 mg/kg/injection, schedule: Q04DX003 (ip), vehicle: saline with Tween-80 112 % of control | endpoint: mean survival time, dose: 20.0 mg/kg/injection, schedule: Q04DX003 (ip), vehicle: saline with Tween-80 107 % of control

CC(C)(C)C(=O)CC(O)(C(F)(F)F)C(F)(F)F
inactive: endpoint: mean survival time, dose: 100.0 mg/kg/injection, schedule: Q04DX003 (ip), vehicle: saline 100 % of control | endpoint: mean survival time, dose: 200.0 mg/kg/injection, schedule: Q04DX003 (ip), vehicle: saline 97 % of control | endpoint: mean survival time, dose: 400.0 mg/kg/injection, schedule: Q04DX003 (ip), vehicle: saline 100 % of control

c1c2c(cc3c1OCO3)CNCC2
inactive: endpoint: mean survival time, dose: 100.0 mg/kg/injection, schedule: Q01DX001 (ip), vehicle: saline 102 % of control

C/C=C(\C)C(=O)OC1C(C)C2(O)C(C=C(CO)CC3(O)C(=O)C(C)=CC32)C2C(C)(C)C12OC(=O)CCCCCCCCC (centres undefined)
inactive: endpoint: mean survival time, dose: 125.0 micrograms/kg/injection, schedule: Q01DX009 (ip), vehicle: saline + alcohol 90 % of control | endpoint: mean survival time, dose: 250.0 micrograms/kg/injection, schedule: Q01DX009 (ip), vehicle: saline + alcohol 95 % of control
